Literature values as cited in patent US9572829B2, “Treatment of ocular disorders” (Massachusetts Eye and Ear Infirmary, priority 2004, dated 2017).

Parameters: unit not given here
Conditions: typical value, general statement

Molecule	Time that photosensitizer persists in the target neovasculature
benzoporphyrin derivative	about fifty
CC(=O)[O-].CC(=O)[O-].CCc1c(CC)c2cc3nc(cnc4cc(OCCOCCOCCOC)c(OCCOCCOCCOC)cc4ncc4nc(cc1[n-]2)C(CCCO)=C4C)C(C)=C3CCCO.O.[Lu+3] [lutetium texaphyrin]	about twenty
C=Cc1c(C)c2cc3nc(c(CC(=O)N[C@@H](CC(=O)O)C(=O)O)c4[nH]c(cc5nc(cc1[nH]2)C(C)=C5CC)c(C)c4C(=O)O)[C@@H](CCC(=O)O)[C@@H]3C [N-aspartyl chlorin e6]	about twenty
